# According to patent US20020164581A1 (priority 2001, published 2002):
# Where two headings read alike, the source gives them in different places.
# Experiments:
# [1] = tested on: bovine aortic endothelial cells (bAECs); settings: for protection against paraquat-mediated cytotoxicity, SERM alone: 10 nM-1 μM, 24 h pretreatment (FIG. 4)
# Description: Primary cultures of bAECs were established from five female beef cattle (ranging in age from 1 to 2 years old) according to the method of Fenselau and Mello (Cancer Res. 36:3269-3273, 1976). Pooled cells were routinely maintained under humidified air (5% CO2) at 37° C. in Dulbecco's modified medium supplemented with 10% fetal bovine serum (FBS). Cells from the second to the fifth passages were used in these studies.
# In the studies in which male and female bAECs were compared, batches of bAECs were independently established from 5 female and 4 male beef cattle (ranging in age from 1 to 2 years old) according to the method of Fenselau and Mello (Cancer Res. 36:3269-3273, 1976). Otherwise, the cells were treated and assessed as described in the paragraph above.
# Prior to E2 pretreatment, cells were grown in phenol red-free DMEM supplemented with 10% dextran/charcoal-stripped FBS for at least 1 passage (3-4 days). Phenol red-free Dulbecco's modified medium was used to avoid potential estrogenic interference. Serum steroid deprivation was conducted according to the conditions described by Yeh et al. (Proc. Natl. Acad. Sci. USA 95:5527-5532, 1998). The E2 level in the stripped serum was assayed using an [^125I] 17β-estradiol radioimmunoassay kit (TKE21, Diagnostic Products Corporation, Los Angeles, Calif.). […] The cells grown in E2-free environments were plated onto Falcon 24-well Primariae™ plates at a density of 5×10^4 cells/well. E2 in dimethylsulfoxide (DMSO) was added to each well at final concentrations ranging from 1 nM to 10 μM 3 hours after plating, and the cells were then incubated for 24 hours (a duration commonly used for the studies of the genomic effects of E2) at 37° C. Control cells were treated with a corresponding amount of DMSO (a final concentration 0.05%).
# Prior to oxidative challenge, E2-containing media was removed, and the cells were rinsed with PBS twice and re-fed with serum-free fresh medium. Subsequently, paraquat was added to the cells at the indicated doses (0.1-2.0 mM) for 3 hours. The oxidative challenge was terminated by aspiration of the oxidant-containing medium and quickly rinsing the cells twice with PBS. The cells were allowed to recover for 48 hours in medium supplemented with 10% regular FBS to exclude the possibility that different concentrations of E2 interfere with the cellular recovery processes.
# Cell survival after oxidative challenge was assessed with a 3-(4,5-dimethylthiazol-2-yl) 2,5 diphenyltetrazolium bromide (MTT) assay in which the mitochondrial dehydrogenase activity of viable cells reduces MTT to a blue formazan product (Carmichael et al. Cancer Res. 47:936-942, 1987). Our prior conditions were employed (Si et al., Endocrine in press, 2001). Briefly, cells were treated with 1/10 volume of MTT solution (5 mg/ml in PBS) and incubated at 37° C. for 2 hours. The supernatant was then removed, and 600 μl of lysis buffer (50% dimethyl formamide, 5% sodium dodecyl sulphate, 0.35 M acetic acid, 50 mM HCl) was added to each well. Following cell lysis, the absorbency was measured at 570 nm and used as an indicator of relative cell survival. The surviving fraction was calculated as compared to the cells without paraquat challenge.
# Two experimental groups were created. In the first group, E2 was added only during the 24-hour pretreatment period. In the second group, E2 was added only during the 3-hour paraquat exposure.
# [2] = tested on: antioxidant enzymes (SOD, CAT, GPX, GR) in bAECs; experiment: Antioxidant enzyme (AOE) activities in cell lysates, all four enzymes together; format: cell-based, bovine; settings: for AOE change, SERM alone: pretreatment with 1 μM alone
# Description: […] The cells were then lysed on ice by sonication at a setting of 50 mW, with 3×15 set cycles using a Cole-Parmer Ultrasonic Homogenizer (Chicago, Ill.). Protein concentrations in the samples were determined by the Bradford method with bovine serum albumin as a standard (Bradford, Anal. Biochem. 72:248-254, 1976).
# SOD activity was determined by a method based on the ability of SOD to suppress epinephrine auto-oxidation (Misra and Fridovich, J.Biol. Chem. 247:3170-3175, 1972). One unit of SOD activity is defined as the amount of protein that inhibits the oxidation of epinephrine by 50%. Briefly, 100 μl of 10×-diluted cell homogenate (about 10 μg protein) was added to 900 μl of carbonate buffer (0.1 M NaHCO3, 0.1 M Na2CO3, 0.1 mM EDTA, pH 10.2) containing 0.7 mM of epinephrine. The absorbency of the mixture was measured for 4 minutes at 480 nm using a Hitachi U-2000 spectrophotometer (Hitachi, San Jose, Calif.).
# CAT activity was determined by the method of Aebi (Methods Enzymol. 105:121,-126, 1984). One unit of CAT activity is defined as the amount of protein that degrades 1 μmole of H2O2 per minute. Initially, 10 μl of absolute ethanol was mixed with 100 μl of cell homogenates and pre-incubated at 4° C. for 30 minutes. Following the addition of 10 μl Triton X-100 (reduced form), a 100 μl aliquot (about 100 μg of protein) of the resultant mixture was next added to 500 μl of hydrogen peroxide (66 mM) and 400 μl of phosphate buffer (0.1 M NaH2PO4, 0.1 M Na2HPO4, 0.1 mM EDTA, pH 7.0). The absorbency of the mixture was monitored for one minute at 240 nm spectrophotometrically. The molar extinction coefficient of 43.6 M/cm was used to determine the catalase activity.
# GPX activity was determined by a modified method of Flohe and Gunzler (Methods Enzymol. 105:114-121, 1984). One unit of GPX activity is defined as the amount of protein that oxidizes 1 nmole of β-NADPH per minute. In this assay, 100 μl of cell homogenate (about 100 μg protein) was added to 800 μl of phosphate buffer (0.1 M NaH2PO4, 0.1 M Na2HPO4, 0.1 mM EDTA, pH 7.0) containing 12.5 mM glutathione (reduced form, GSH), 0.2 mM β-nicotinamide adenine dinucleotide phosphate (reduced form, β-NADPH), and 0.34 U glutathione reductase. This mixture was pre-incubated at 37 C for 10 minutes and then 100 μl of 12 mM t-butyl hydroperoxide was added. The absorbency of the mixture was determined at 340 nm for 3 minutes. The molar extinction coefficient of 6.22 mM/cm was used to determine the activity of GPX.
# GR activity was determined by a modified method of Carlberg and Mannervik (Methods Enzymol. 11 3:484-490, 1985). One unit of GR activity is defined as the amount of protein that oxidizes 1 nmole of β-NADPH per minute. Briefly, 50 μl of 2 mM β-NADPH in 10 mM Tris buffer (pH 7.0) was added to a cuvette containing 50 μl of 20 mM glutathione (oxidized ofrm, GSSG) in phosphate buffer (0.1 M NaH2PO4, 0.1 M Na2HPO4, 0.1 mM EDTA, pH 7.0) and 800 μl of phosphate buffer. Following the addition of cell homogenate (about 100 μg protein/100 μl) the final mixture was measured at 340 nm for 3 minutes. The molar extinction coefficient of 6.22 mM/cm was used to determine the activity of […].
# estrogen receptor = settings: cited from earlier work
# LDL = settings: 5-50 μM; oxidation by copper ions, monocytes, or endothelial cells; cited from earlier work
# [3] = tested on: endothelial nitric oxide synthase; settings: endothelial cells; cited from earlier work
# cardiomyocytes = settings: cited from earlier work
compound,measurement,setting,value
4-hydroxytamoxifen [4-OH-Tam],protection against subsequent oxidative challenge,[1],neither positively nor negatively influenced oxidative resistance
same,effect on E2-induced oxidative protection,[1]; 10 nM-1 μM added simultaneously with 1 nM E2 during pretreatment,significantly blocked estrogen-induced oxidative protection
same,"protection against paraquat-mediated cytotoxicity, SERM alone",[1],failed to confer detectable protection
same,minimal dose to suppress E2 protection,"[1]; co-treatment with 1 nM E2, endothelial cells",10 nM
same,effect on E2's capability to evoke AOE activities,[2]; 1 μM SERM included during 1 nM E2 pretreatment (FIG. 6),significantly decreased estrogen's capability to evoke AOE activities
same,"AOE change, SERM alone",[2],no detectable change in AOE
CCCCN(C)C(=O)CCCCCCCCCC[C@@H]1Cc2cc(O)ccc2[C@H]2CC[C@]3(C)[C@@H](O)CC[C@H]3[C@H]12 [ICI164384],effect on the beneficial effect of E2,estrogen receptor,reverses the beneficial effect of E2
"O=C(c1ccc(OCCN2CCCCC2)cc1)c1c(-c2ccc(O)cc2)sc2cc(O)ccc12 [Ral, raloxifene]",protection against subsequent oxidative challenge,[1],neither positively nor negatively influenced oxidative resistance
same,"protection against paraquat-mediated cytotoxicity, SERM alone",[1],failed to confer detectable protection
same,effect on E2-induced oxidative protection,[1]; 1 μM (highest tested dose) added with 1 nM E2 during pretreatment,only a slight inhibitory effect on E2 protection
same,effect on E2-induced oxidative protection,[1]; 1-100 nM added with 1 nM E2 during pretreatment,did not affect E2-induced oxidative protection
same,"AOE change, SERM alone",[2],no detectable change in AOE
C[C@@H]1C[C@@H]([C@H](O)CC2CC(=O)NC(=O)C2)C(=O)[C@@H](C)C1 [cyclohexamide],effect on AOE induction by E2,[2]; included during the E2 pretreatment period,abolished
CC/C(=C(/CC)c1ccc(O)cc1)c1ccc(O)cc1 [diethylstilbestrol],protection against subsequent oxidative challenge,[1],acquired significant protection against subsequent oxidative challenge
C[C@]12CC[C@@H]3c4ccc(O)cc4CC[C@H]3[C@@H]1C[C@@H](O)[C@@H]2O [estriol],effect on LDL oxidation,LDL,inhibit LDL oxidation
COc1ccc2c(c1)CCC(c1ccccc1)=C2c1ccc(OCCN2CCCC2)cc1 [nafoxidine],protection against subsequent oxidative challenge,[1],neither positively nor negatively influenced oxidative resistance
"C[n+]1ccc(-c2cc[n+](C)cc2)cc1.[Cl-].[Cl-] [paraquat, 1,1′-dimethyl-4,4′-bipyridinium dichloride]",cell killing by paraquat,[1]; exposure of bAECs 3 h at 37 C,dose-dependent cell killing
same,LD50 of paraquat,[1]; male and female bAECs (both genders),0.1 to 1.0 mM
same,LD50 of paraquat toxicity,[1]; untreated control cells (no E2),about 0.5 mM
CC/C(=C(\c1ccccc1)c1ccc(OCCN(C)C)cc1)c1ccccc1 [tamoxifen],effect on E2's induction of nitric oxide synthase,[3],interferes with E2's ability to induce nitric oxide synthase
same,effect on E2's protection in cardiomyocytes,cardiomyocytes,abolishes this protective effect
C[C@]12CC[C@H]3[C@@H](CCC4=CC(=O)CC[C@@]43C)[C@@H]1CC[C@@H]2O [testosterone],effect on LDL oxidation,LDL,has no effect
